Tests used:
[1] = system: HCMV strain AD169 in MRC-5 cells; experiment: HCMV plaque reduction assay; conditions: HCMV AD169 in MRC-5 cells; peptide 10 micrograms per ml; 7-10 days
MRC-5 cells = conditions: human, 6 days
CEM-SS cells = conditions: peptide 10 micrograms per ml, MTS
[2] = system: HIV-1IIIB in CEM-SS cells; experiment: HIV-1 antiviral assay, CPE reduction (MTS); conditions: peptide 10 micrograms per ml, 6 days post-infection
in vitro [3] = conditions: human, CEM-SS cells
Pseudomonas aeruginosa = conditions: 5 micrograms per ml
Streptococcus pneumoniae = conditions: 5 micrograms per ml
[4] = system: Methicillin Resistant Staphylococcus Aureus (MRSA); conditions: 5 micrograms per ml
[5] = Cytotoxicity in MRC-5 cells (CellTiter 96); conditions: human, MRC-5 cells (embryonal lung fibroblasts)
in vitro [6] = conditions: human
HepG2-2.2.15 cells = conditions: peptide 10 micrograms per ml, dye uptake assay

For `Nc1nc(O)c2ncn(COC(CO)CO)c2n1` [Ganciclovir], the “% plaque reduction” value [1] was 100% and the “% Cell viability” value (MRC-5 cells) was 100%.

With `Cc1cn([C@H]2C[C@H](N=[N+]=[N-])[C@@H](CO)O2)c(=O)[nH]c1=O` [AZT] the “% Cell viability” value (CEM-SS cells) was 97% and the “% CPE reduction in HIV-1 infected CEM-SS cells” value [2] was 99%.

For `CC(C)(C)NC(=O)[C@@H]1CN(Cc2cccnc2)CCN1C[C@@H](O)C[C@@H](Cc1ccccc1)C(=O)N[C@H]1c2ccccc2C[C@H]1O` [Indinavir], the “% CPE reduction in HIV-1 infected CEM-SS cells” value [2] was 100%.

In the case of `CC[C@H](C)[C@H](NC(=O)[C@H](CCCCN)NC(=O)[C@H](CCC(=O)O)NC(=O)[C@H](CCCCN)NC(=O)[C@H](CO)NC(=O)[C@H](CCCCN)NC(=O)[C@H](CCCNC(=N)N)NC(=O)[C@H](Cc1ccccc1)NC(=O)[C@H](Cc1ccccc1)NC(=O)[C@H](CC(=O)O)NC(=O)CNC(=O)[C@H](CC(C)C)NC(=O)[C@@H](N)CC(C)C)C(=O)NCC(=O)N[C@@H](CCCCN)C(=O)N[C@@H](CCC(=O)O)C(=O)N[C@@H](Cc1ccccc1)C(=O)N[C@@H](CCCCN)C(=O)N[C@@H](CCCNC(=N)N)C(=O)N[C@H](C(=O)N[C@H](C(=O)N[C@@H](CCC(N)=O)C(=O)N[C@@H](CCCNC(=N)N)C(=O)N[C@H](C(=O)N[C@@H](CCCCN)C(=O)N[C@@H](CC(=O)O)C(=O)N[C@@H](Cc1ccccc1)C(=O)N[C@@H](CC(C)C)C(=O)N[C@@H](CCCNC(=N)N)C(=O)N[C@@H](CC(N)=O)C(=O)N[C@@H](CC(C)C)C(=O)N[C@H](C(=O)N1CCC[C@H]1C(=O)N[C@@H](CCCNC(=N)N)C(=O)N[C@H](C(=O)N[C@@H](CCC(=O)O)C(=O)N[C@@H](CO)C(N)=O)[C@@H](C)O)C(C)C)[C@@H](C)CC)C(C)C)[C@@H](C)CC` [LL-37], the viability at 10 micrograms per ml (in vitro [3]) was 86.4%, the “% inhibition” value (Pseudomonas aeruginosa) was 0.0% and the “% inhibition” value (Streptococcus pneumoniae) was 0.0%. For the same compound, the “% inhibition” value [4] was 0.0%, the viability at 144 h [5] was 100% and the viability at 144 h, 10 micrograms per ml (in vitro [6]) was 100%.

With `Nc1ccn([C@@H]2CS[C@H](CO)O2)c(=O)n1` [3TC, Lamivudine] the “% Cell viability” value (HepG2-2.2.15 cells) was 95.8%.
